In US8629116B2, “Method for inducing a TRIF-bias” (priority 2008, dated 2014):
“Also recorded” adds a separate entry of the source.

Tests used:
[1] = tested on: human PBMC-derived macrophages; assay: Cytokine/chemokine induction in the presence of the endocytosis inhibitor Dynasore; type: cell-based; conditions: with Dynasore; for MyD88-dependent MIP-1α induction under inhibition of endocytosis: relative to non-treated cells
human primary monocytes = assay: Western blot of human primary monocytes (IRAK-1, IRF-3); type: cell-based; conditions: Western blot time course
Description: (§1) For Western blot and phospho-Western blot protein analysis, cells are lysed with Cell Lysis Buffer (Cell Signaling Technology, Danvers, Mass.) with Protease Inhibitor Cocktail (Sigma, St. Louis Mo.). Western Blot on PVDF membranes (Millipore) is performed using standard methods. Bands are detected with ECL Advance Western Blot kit (GE Healthcare, Piscataway, N.J.). Secondary Anti-Rabbit HRP antibody is obtainable from KPL, (Gaithersburg, Md.). Anti-βactin, anti-IRF-3, anti-phospho-IRF-3 (Ser396) and anti-IRAK1 antibodies are obtained from Cell Signaling Technology (Danvers, Mass.).
Degradation of the Serine/Threonine Kinase, IRAK-1, occurs downstream of MyD88-dependent TLR4 signaling (Hatao et al, 260-64; Neumann et al. 1089-94), while TRIF-dependent TLR4 signaling results in IRF-3 activation (Yamamoto et al. 6668-72; Yamamoto et al. 640-43). Here, human primary monocytes are stimulated with either CRX-547 or CRX-527 for the indicated times, and cellular lysates are analyzed by Western Blot for the levels of the MyD88 pathway-activated kinase, IRAK-1, and the TRIF pathway-activated transcription factor, IRF-3 (phospho-IRF-3 and total IRF-3). The levels of β-actin is used as the loading control.

MM6 cells = assay: Western blot of MM6 cells (IκBα, IRAK4, p38, IRF3); type: cell-based, human; conditions: for IRAK-4 / total IκBα / TRIF-mediated signaling proteins (phospho-p38, total p38, IRF3, phospho-IRF3): 10 ng/ml; for TRIF-mediated signaling proteins (phospho-p38, total p38, IRF3, phospho-IRF3): difference between the two AGPs
Description: as §1
The role of MAPK signaling molecules in MyD88 versus TRIF signaling after TLR4 ligation is complicated because p38 is implicated in both pathways, however a role for p38 phosphorylation as an indicator of the TRIF pathway is indicated in the literature. […] To determine whether the phosphorylation state of p38 is different after stimulation with CRX-527 versus CRX-547, western blot analysis is performed on lysates from MM6 cells.
MAPK pathways and downstream transcription factors are differentially regulated by TLR agonists. Degradation of IRAK4 and IκBα are indicative of MyD88 after TLR4 signaling (Hatao et al. 260-64; Neumann et al. 1089-94), while TRIF-mediated TLR4 signaling results in IRF3 activation (Yamamoto et al. 6668-72; Yamamoto et al. 640-43). MM6 cells are stimulated with either CRX-547 or CRX-527 (10 ng/ml) for the indicated time. Cellular lysates are collected and Western Blot analysis of the MyD88 pathway proteins, Phospho-IκBα, total IκBα, IRAK4, and TRIF pathway proteins, phospho-p38, total IRF3 and phospho IRF3 is performed using βactin as the loading control.

[2] = Induction of serum cytokines/chemokines in mice; type: in vivo, mouse; conditions: C57BL/6 mice, 2 or 6 hours post injection
Description: Female BALB/c or C57B1/6 mice are obtained from Charles River Laboratories, USA, and are 7 to 9 weeks of age when the experiments are initiated. Mice are injected intraperitoneally with 200 uL of agonist in vehicle (0.2% glycerol) or vehicle alone. Serum samples are drawn at 2 or 6 hours post-injection and are tested for induction of cytokines/chemokines by multiplex sandwich ELISA (Invitrogen) on the Luminex platform. All animals are used in accordance with guidelines established by the Public Health Service and the Institutional Animal Care and Use Committee at GlaxoSmithKline Biologicals, Hamilton, Mont.
To ensure that this response is not specific to BALB/c mice, a similar test of serum cytokine induction in C57BL/6 mice is carried out. (FIG. 16). The kinetics (induction at 2 or 6 hours post injection) and magnitude of cytokine induction are similar for CRX-527 and CRX-547 for both MyD88-dependent (TNFα, IL-10) and TRIP-dependent (RANTES, IP-10, MIG) cytokines/chemokines, although the relative induction by CRX-547 is slightly less for select cytokines than that seen in BALB/c (not shown). […]

[3] = target: T1, human TLR4 and murine MD-2 (UniProt O00206+Q9JHF9); assay: NFκB promoter activity in HEK293 cells with chimeric human TLR4 and murine MD-2; type: cell-based, human/mouse; conditions: HEK293 huTLR4/muMD-2
T1 construct: expressed in transfected cells; host or cells: HEK293
T1 sequence (O00206 24-839): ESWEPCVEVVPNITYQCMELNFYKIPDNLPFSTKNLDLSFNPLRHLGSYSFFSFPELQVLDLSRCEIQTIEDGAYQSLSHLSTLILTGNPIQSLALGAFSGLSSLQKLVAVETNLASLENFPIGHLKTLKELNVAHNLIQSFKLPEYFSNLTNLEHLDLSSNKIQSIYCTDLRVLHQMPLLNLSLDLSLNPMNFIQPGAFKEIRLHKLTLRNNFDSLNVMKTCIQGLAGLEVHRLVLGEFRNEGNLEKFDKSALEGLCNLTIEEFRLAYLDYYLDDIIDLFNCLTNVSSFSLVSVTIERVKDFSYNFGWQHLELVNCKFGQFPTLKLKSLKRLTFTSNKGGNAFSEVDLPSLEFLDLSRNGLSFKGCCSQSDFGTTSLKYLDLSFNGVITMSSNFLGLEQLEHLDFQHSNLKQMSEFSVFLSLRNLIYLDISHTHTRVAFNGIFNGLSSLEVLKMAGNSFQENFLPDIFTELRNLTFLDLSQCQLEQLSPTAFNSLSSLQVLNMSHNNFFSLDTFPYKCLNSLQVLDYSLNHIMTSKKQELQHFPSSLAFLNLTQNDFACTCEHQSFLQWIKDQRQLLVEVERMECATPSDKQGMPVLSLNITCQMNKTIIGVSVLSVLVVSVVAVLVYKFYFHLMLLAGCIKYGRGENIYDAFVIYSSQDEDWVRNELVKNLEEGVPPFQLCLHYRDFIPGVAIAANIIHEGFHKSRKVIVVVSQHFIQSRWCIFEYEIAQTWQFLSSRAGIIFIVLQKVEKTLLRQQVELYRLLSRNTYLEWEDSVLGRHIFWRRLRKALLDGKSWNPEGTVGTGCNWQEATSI
T1 sequence (Q9JHF9 19-160): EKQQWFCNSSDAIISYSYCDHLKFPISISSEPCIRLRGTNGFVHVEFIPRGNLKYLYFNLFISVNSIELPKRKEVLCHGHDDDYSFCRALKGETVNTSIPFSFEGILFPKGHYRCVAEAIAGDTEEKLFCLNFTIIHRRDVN

[4] = Rabbit toxicology study by IM route; type: in vivo; conditions: for hematology: granulocytosis: day 9 (2 days post-2°), resolves by day 21; for gross pathology: white discoloration of muscle along needle track and at site of injection: low dose (5 μg); for overall impression of toxicity: n=3 rabbits/group
Description: Groups of three rabbits (NZW—Western Oregon Rabbit Company, Philomath, Oreg.) are vaccinated with 1 mL diluted AGP, or MPL control, IM on days 0, 7 and 14. Two doses of AGP are evaluated. All animals are monitored for body weight, temperature, clinical condition and draize score. Animals are sacrificed one week post final administration. Blood is collected pretreatment, two days after the 2nd vaccination and upon sacrifice for hematology and clinical chemistry. Histopathology of injection sites and major organs are conducted according to standard practices. All animals are used in accordance with guidelines established by the Public Health Service and the Institutional Animal Care and Use Committee at GlaxoSmithKline Biologicals, Hamilton, Mont.
Toxicity of CRX-527, 524, 547 and compound 1 is evaluated in rabbits receiving AGP only by the intramuscular (IM) route. Groups of three rabbits are vaccinated with 1 mL diluted AGP, or MPL control, IM on days 0, 7 and 14. Two doses of AGP are evaluated: high (25 μg) and low (5 μg). All animals are monitored for body weight, temperature, clinical condition and draize score. Animals are sacrificed one week post final administration. Blood is collected pretreatment, two days after the 2nd vaccination and upon sacrifice for hematology and clinical chemistry. Histopathology of injection sites and major organs are conducted.

[5] = tested on: human PBMC-derived monocytes; assay: Cytokine/chemokine gene expression (qPCR time course) in human PBMC-derived monocytes; type: cell-based; conditions: for time of highest IFNβ gene induction: qPCR time course
From the text: Initial experiments include time course analysis of MyD88- and TRIF-dependent cytokine gene induction using qPCR.

SMILES | TRIF-dependent RANTES induction under inhibition of endocytosis [1] | MyD88-dependent MIP-1α induction under inhibition of endocytosis [1] | IRAK-1 level (MyD88 pathway) (human primary monocytes) | IRAK-4 (MM6 cells) | total IκBα (MM6 cells) | TRIF-mediated signaling proteins (phospho-p38, total p38, IRF3, phospho-IRF3) (MM6 cells) | phosphorylation state of p38 (MM6 cells; compared to CRX-547) | kinetics and magnitude of serum cytokine induction (TNFα, IL-10, RANTES, IP-10, MIG) [2] | induction of promoter activity, CRX-527 versus CRX-547 [3] | injection site histopathology (myositis) ([4]; high dose) | hematology: granulocytosis ([4]; high dose) | gross pathology: white discoloration of muscle along needle track and at site of injection [4] | hematology: granulocytosis ([4]; low dose) | overall impression of toxicity [4] | MyD88-dependent cytokine/chemokine gene expression [5] | TRIF-dependent cytokine/chemokine gene expression [5] | time of highest IFNβ gene induction [5] | injection site histopathology (myositis) ([4]; low dose)
CCCCCCCCCCCC(CC(=O)NC(COC1OC(CO)C(OP(=O)(O)O)C(OC(=O)CC(CCCCCCCCCCC)OC(=O)CCCCCCCCC)C1NC(=O)CC(CCCCCCCCCCC)OC(=O)CCCCCCCCC)C(=O)O)OC(=O)CCCCCCCCC.CCN(CC)CC (centres unmarked) [CRX-527] | inhibits | increases slightly | rapid decrease; also recorded: greater degradation | rapid decrease; also recorded: greater degradation | rapid decrease | little or difference | slight increase | similar | large relative difference | most consistent and greatest | trend of granulocytosis | seen | trend of granulocytosis | mildly toxic | greater | greater | 1 h | 
CCCCCCCCCCCC(CC(=O)NC(COC1OC(CO)C(OP(=O)(O)O)C(OC(=O)CC(CCCCCCCCCCC)OC(=O)CCCCCCCCC)C1NC(=O)CC(CCCCCCCCCCC)OC(=O)CCCCCCCCC)C(=O)O)OC(=O)CCCCCCCCC.CCN(CC)CC (centres unmarked) [CRX-547] | inhibits | increases slightly | delayed and reduced degradation | delayed and less degradation | delayed and less degradation | little or difference |  | similar | large relative difference |  |  | not |  | minimally toxic |  |  | 1 h | no muscle pathology
